Experimental findings from patent US8076487B2, “Pyridone derivative and herbicide” (Kumiai Chemical Industry Co., Ltd., priority 2006, dated 2011) are described below.

Format in all cases: in vivo
Test [1] deals with green foxtail (Setaria viridis (L.) P. Beauv.). The test is described as follows: Test Example 3: herbicidal effect by application to upland field (foliage treatment). Particulars: 14th day after application; for herbicidal effect (index), Green Foxtail: foliage treatment, plants grown two weeks, 1,000 g active ingredient per hectare; for herbicidal effect, Green Foxtail: foliage treatment, 1,000 g active ingredient per 1 hectare, greenhouse. In a few lines: (§1)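 Sow in field soil; grow 2 weeks in greenhouse; spray foliage from above with wettable-powder dilution (1,000 g AI/ha, 1,000 L/ha); return to greenhouse; score effect at day 14 against a standard.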

Test [2] deals with slender amaranth (Amaranthus viridis L.). The description is as above. The following applies: 14th day after application; for herbicidal effect (index), Slender Amaranth: foliage treatment, plants grown two weeks, 1,000 g active ingredient per hectare; for herbicidal effect, Slender Amaranth: foliage treatment, 1,000 g active ingredient per 1 hectare, greenhouse. An outline of the steps: as §1

In test [3] the test system is velvetleaf (Abutilon theophrasti medicus). Described as above. Particulars: 14th day after application; for herbicidal effect (index), Velvetleaf: foliage treatment, plants grown two weeks, 1,000 g active ingredient per hectare; for herbicidal effect, Velvetleaf: foliage treatment, 1,000 g active ingredient per 1 hectare, greenhouse. An outline of the steps: as §1
Test [4] concerns barnyardgrass (Echinochloa crus-galli (L.) P. Beauv. var. crus-galli). The description is as above. The following applies: 14th day after application; for herbicidal effect (index), Barnyardgrass: foliage treatment, plants grown two weeks, 1,000 g active ingredient per hectare; for herbicidal effect, Barnyardgrass: foliage treatment, 1,000 g active ingredient per 1 hectare, greenhouse. An outline of the steps:
as §1

The subject of test [5] is green foxtail (Setaria viridis (L.) P. Beauv.). The test is described as follows: Test Example 2: herbicidal effect by soil application to upland field. Particulars: soil surface spray, upland field soil, 1,000 g active ingredient per hectare, 21st day after application. In a few lines: (§2)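 Scoring on a standard scale took place 21 days after application, with plants kept in a greenhouse. Active ingredient (1,000 g/ha, as diluted wettable powder, 1,000 L/ha) was sprayed evenly onto soil directly after sowing and covering seeds.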

The test system of test [6] is slender amaranth (Amaranthus viridis L.). Described as above. The following applies: soil surface spray, upland field soil, 1,000 g active ingredient per hectare, 21st day after application. In a few lines: as §2
Test [7] concerns velvetleaf (Abutilon theophrasti medicus). Described as above. The following applies: soil surface spray, upland field soil, 1,000 g active ingredient per hectare, 21st day after application. In a few lines:
as §2

Test [8] deals with barnyardgrass (Echinochloa crus-galli (L.) P. Beauv. var. crus-galli). The description is as above. The following applies: soil surface spray, upland field soil, 1,000 g active ingredient per hectare, 21st day after application. In a few lines:
as §2

The subject of test [9] is Japanese bulrush (Scirpus juncoides Roxb.). Kind of test: Test Example 1: herbicidal effect by soil application to paddy field. The following applies: paddy field soil application; active ingredient 1,000 g per 1 hectare; wettable powder added dropwise to water surface the day after sowing; examined on the 21st day after application. In a few lines:
(§3)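 Plants were sown in flooded (3 cm) paddy soil and evaluated for herbicidal effect 21 days after soil application in a greenhouse.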

The subject of test [10] is early watergrass (Echinochloa oryzicola Vasing). Described as above. Particulars: paddy field soil application; active ingredient 1,000 g per 1 hectare; wettable powder added dropwise to water surface the day after sowing; examined on the 21st day after application. An outline of the steps:
as §3

Test [11] deals with heartshape false pickerelweed (Monochoria vaginalis (Burm.f.) C.Presl). Described as above. Particulars: paddy field soil application; active ingredient 1,000 g per 1 hectare; wettable powder added dropwise to water surface the day after sowing; examined on the 21st day after application. An outline of the steps:
as §3

On to `C[S+]([O-])CCn1c(C(F)(F)F)ccc(C(=O)C2=C(O)CCCC2=O)c1=O` (centres unmarked) [I-66], for which the “herbicidal effect (index), Green Foxtail” value in test [1] was 5 (90% or more of herbicidal effect and crop phytotoxicity); in test [5], 5 (90% or more of herbicidal effect and crop phytotoxicity). The “herbicidal effect (index), Slender Amaranth” value in [2] was 5 (90% or more of herbicidal effect and crop phytotoxicity); in test [6], 5 (90% or more of herbicidal effect and crop phytotoxicity). Also, the “herbicidal effect (index), Velvetleaf” value in [3] is 5 (90% or more of herbicidal effect and crop phytotoxicity); in test [7], 5 (90% or more of herbicidal effect and crop phytotoxicity). For the same molecule, the “herbicidal effect (index), Barnyardgrass” value in test [4] is 5 (90% or more of herbicidal effect and crop phytotoxicity); in test [8], 5 (90% or more of herbicidal effect and crop phytotoxicity). The “herbicidal effect, Scirpus juncoides Roxb.” value in test [9] is 5 (90% or more of herbicidal effect and crop phytotoxicity). The “herbicidal effect, Echinochloa oryzicola Vasing” value in [10] was 5 (90% or more of herbicidal effect and crop phytotoxicity). In test [11], the “herbicidal effect, Monochoria vaginalis (Burm. f.) C. Presl” value (“herbicidal effect, Monochoria vaginalis” below) was 5 (90% or more of herbicidal effect and crop phytotoxicity).
As for `CS(=O)(=O)CCn1c(C(F)(F)F)ccc(C(=O)C2=C(O)CCCC2=O)c1=O` [I-67], the “herbicidal effect (index), Green Foxtail” value in test [1] is 5 (90% or more of herbicidal effect and crop phytotoxicity); in test [5], 5 (90% or more of herbicidal effect and crop phytotoxicity). The “herbicidal effect (index), Slender Amaranth” value is 5 (90% or more of herbicidal effect and crop phytotoxicity) in [2]; 5 (90% or more of herbicidal effect and crop phytotoxicity) in test [6]. Besides, the “herbicidal effect (index), Velvetleaf” value was 5 (90% or more of herbicidal effect and crop phytotoxicity) in [3]; 5 (90% or more of herbicidal effect and crop phytotoxicity) in [7]. In addition, the “herbicidal effect (index), Barnyardgrass” value in [4] was 5 (90% or more of herbicidal effect and crop phytotoxicity); in test [8], 5 (90% or more of herbicidal effect and crop phytotoxicity). Moreover, the “herbicidal effect, Scirpus juncoides Roxb.” value in test [9] was 5 (90% or more of herbicidal effect and crop phytotoxicity). Moreover, the “herbicidal effect, Echinochloa oryzicola Vasing” value in [10] is 5 (90% or more of herbicidal effect and crop phytotoxicity). The “herbicidal effect, Monochoria vaginalis” value in [11] was 5 (90% or more of herbicidal effect and crop phytotoxicity).
Consider `O=C1CCCC(O)=C1C(=O)c1ccc(C(F)(F)F)n(Cc2ccccc2)c1=O` [I-114], for which the “herbicidal effect, Green Foxtail” value in [1] was 4 (70 to less than 90% of herbicidal effect and crop phytotoxicity). Moreover, in test [2], the “herbicidal effect, Slender Amaranth” value is 5 (90% or more of herbicidal effect and crop phytotoxicity). For the same molecule, the “herbicidal effect, Velvetleaf” value in [3] is 5 (90% or more of herbicidal effect and crop phytotoxicity). The “herbicidal effect, Barnyardgrass” value in [4] was 5 (90% or more of herbicidal effect and crop phytotoxicity). In test [5], the “herbicidal effect (index), Green Foxtail” value was 4 (70 to less than 90% of herbicidal effect and crop phytotoxicity). The “herbicidal effect (index), Slender Amaranth” value in [6] is 5 (90% or more of herbicidal effect and crop phytotoxicity). Further, the “herbicidal effect (index), Velvetleaf” value in test [7] was 5 (90% or more of herbicidal effect and crop phytotoxicity). Also, the “herbicidal effect (index), Barnyardgrass” value in test [8] is 5 (90% or more of herbicidal effect and crop phytotoxicity). For the same molecule, the “herbicidal effect, Scirpus juncoides Roxb.” value in test [9] was 5 (90% or more of herbicidal effect and crop phytotoxicity). The “herbicidal effect, Echinochloa oryzicola Vasing” value in test [10] is 5 (90% or more of herbicidal effect and crop phytotoxicity). In addition, the “herbicidal effect, Monochoria vaginalis” value in test [11] was 5 (90% or more of herbicidal effect and crop phytotoxicity).
Take `COc1ccc(-n2c(C(F)(F)F)ccc(C(=O)C3=C(O)CCCC3=O)c2=O)cc1Cl` [I-110]: the “herbicidal effect, Green Foxtail” value in test [1] is 3 (50 to less than 70% of herbicidal effect and crop phytotoxicity). Further, the “herbicidal effect, Slender Amaranth” value in test [2] was 5 (90% or more of herbicidal effect and crop phytotoxicity). Moreover, the “herbicidal effect, Velvetleaf” value in test [3] is 4 (70 to less than 90% of herbicidal effect and crop phytotoxicity). The “herbicidal effect, Barnyardgrass” value in [4] was 5 (90% or more of herbicidal effect and crop phytotoxicity). Also, the “herbicidal effect (index), Green Foxtail” value in test [5] was 4 (70 to less than 90% of herbicidal effect and crop phytotoxicity). Besides, the “herbicidal effect (index), Slender Amaranth” value in [6] is 5 (90% or more of herbicidal effect and crop phytotoxicity). Also, the “herbicidal effect (index), Velvetleaf” value in [7] is 5 (90% or more of herbicidal effect and crop phytotoxicity). In addition, the “herbicidal effect (index), Barnyardgrass” value in [8] is 5 (90% or more of herbicidal effect and crop phytotoxicity). Further, the “herbicidal effect, Scirpus juncoides Roxb.” value in test [9] is 5 (90% or more of herbicidal effect and crop phytotoxicity). Also, the “herbicidal effect, Echinochloa oryzicola Vasing” value in [10] is 5 (90% or more of herbicidal effect and crop phytotoxicity). In addition, the “herbicidal effect, Monochoria vaginalis” value in [11] is 5 (90% or more of herbicidal effect and crop phytotoxicity).
With `C=CCn1c(C(F)(F)F)ccc(C(=O)c2cnn(C)c2O)c1=O` [IV-11], in [1], the “herbicidal effect, Green Foxtail” value is 5 (90% or more of herbicidal effect and crop phytotoxicity). Besides, the “herbicidal effect, Slender Amaranth” value in test [2] is 5 (90% or more of herbicidal effect and crop phytotoxicity). The “herbicidal effect, Velvetleaf” value in test [3] was 5 (90% or more of herbicidal effect and crop phytotoxicity). For the same molecule, the “herbicidal effect, Barnyardgrass” value in [4] is 5 (90% or more of herbicidal effect and crop phytotoxicity). For the same molecule, the “herbicidal effect (index), Green Foxtail” value in test [5] was 4 (70 to less than 90% of herbicidal effect and crop phytotoxicity). Besides, the “herbicidal effect (index), Slender Amaranth” value in [6] was 5 (90% or more of herbicidal effect and crop phytotoxicity). Also, in test [7], the “herbicidal effect (index), Velvetleaf” value is 5 (90% or more of herbicidal effect and crop phytotoxicity). In addition, the “herbicidal effect (index), Barnyardgrass” value in test [8] is 5 (90% or more of herbicidal effect and crop phytotoxicity). Further, the “herbicidal effect, Scirpus juncoides Roxb.” value in test [9] is 5 (90% or more of herbicidal effect and crop phytotoxicity). For the same molecule, the “herbicidal effect, Echinochloa oryzicola Vasing” value in [10] is 5 (90% or more of herbicidal effect and crop phytotoxicity). In addition, the “herbicidal effect, Monochoria vaginalis” value in test [11] is 5 (90% or more of herbicidal effect and crop phytotoxicity).
Turning to `O=C1CCCC(O)=C1C(=O)c1ccc(C(F)(F)F)n(CCc2ccccc2)c1=O` [I-129], in test [1], the “herbicidal effect, Green Foxtail” value is 5 (90% or more of herbicidal effect and crop phytotoxicity). For the same molecule, in test [2], the “herbicidal effect, Slender Amaranth” value is 5 (90% or more of herbicidal effect and crop phytotoxicity). For the same molecule, the “herbicidal effect, Velvetleaf” value in [3] was 5 (90% or more of herbicidal effect and crop phytotoxicity). Besides, the “herbicidal effect, Barnyardgrass” value in test [4] was 5 (90% or more of herbicidal effect and crop phytotoxicity). Besides, the “herbicidal effect (index), Green Foxtail” value in [5] was 4 (70 to less than 90% of herbicidal effect and crop phytotoxicity). Besides, the “herbicidal effect (index), Slender Amaranth” value in test [6] is 5 (90% or more of herbicidal effect and crop phytotoxicity). For the same molecule, in [7], the “herbicidal effect (index), Velvetleaf” value was 5 (90% or more of herbicidal effect and crop phytotoxicity). Further, in [8], the “herbicidal effect (index), Barnyardgrass” value is 5 (90% or more of herbicidal effect and crop phytotoxicity). For the same molecule, the “herbicidal effect, Scirpus juncoides Roxb.” value in [9] was 5 (90% or more of herbicidal effect and crop phytotoxicity). Besides, in test [10], the “herbicidal effect, Echinochloa oryzicola Vasing” value was 5 (90% or more of herbicidal effect and crop phytotoxicity). Further, in test [11], the “herbicidal effect, Monochoria vaginalis” value was 4 (70 to less than 90% of herbicidal effect and crop phytotoxicity).
Take `Nn1c(C(F)(F)F)ccc(C(=O)C2=C(O)CCCC2=O)c1=O` [I-156]: the “herbicidal effect, Green Foxtail” value in test [1] is 4 (70 to less than 90% of herbicidal effect and crop phytotoxicity). Moreover, the “herbicidal effect, Slender Amaranth” value in test [2] is 5 (90% or more of herbicidal effect and crop phytotoxicity). Moreover, the “herbicidal effect, Velvetleaf” value in test [3] is 5 (90% or more of herbicidal effect and crop phytotoxicity). The “herbicidal effect, Barnyardgrass” value in test [4] is 5 (90% or more of herbicidal effect and crop phytotoxicity). The “herbicidal effect (index), Green Foxtail” value in test [5] is 4 (70 to less than 90% of herbicidal effect and crop phytotoxicity). The “herbicidal effect (index), Slender Amaranth” value in [6] is 5 (90% or more of herbicidal effect and crop phytotoxicity). The “herbicidal effect (index), Velvetleaf” value in test [7] was 5 (90% or more of herbicidal effect and crop phytotoxicity). In addition, in [8], the “herbicidal effect (index), Barnyardgrass” value is 5 (90% or more of herbicidal effect and crop phytotoxicity). Further, the “herbicidal effect, Scirpus juncoides Roxb.” value in test [9] is 5 (90% or more of herbicidal effect and crop phytotoxicity). The “herbicidal effect, Echinochloa oryzicola Vasing” value in [10] was 5 (90% or more of herbicidal effect and crop phytotoxicity). In test [11], the “herbicidal effect, Monochoria vaginalis” value is 5 (90% or more of herbicidal effect and crop phytotoxicity).
